Results on 2 molecules are retold here after patent US6719969B1, “Treatment of liver disease and injury with CXC chemokines” (The Regents of The University of Michigan, priority 1999, dated 2004).

The subject of one data set is CD1 and BALB/c mice. Description: Acetaminophen lethality, pilot studies in CD1 and BALB/c mice. It is filed as in vivo, mouse. The conditions noted are these: 400 mg/kg i.p., 12 h fast. The protocol: Protocol 2: In the second series of studies, CD1, CXCR2ko and CXCR2wt mice were allowed free access to water for 12 h prior to an i.p. injection of 400 mg/kg acetaminophen. All acetaminophen challenged mice were fasted in this manner because previous studies have shown that fasting promotes hepatic susceptibility to acetaminophen toxicity by decreasing the inactivation of chemically reactive metabolites […], allowing these metabolites to bind hepatocyte proteins and cause cell damage (Whitcomb and Block, 1994; Pessayre et al., 1979; each incorporated herein by reference). […] Two hours prior to acetaminophen challenge, CD1 mice (n=1 0/group) were injected with 0.5 ml of normal rabbit serum or anti-mouse MIP-2 antiserum, and mouse survival was monitored for the subsequent 4 days. CXCR2ko and CXCR2wt mice (n=5/group) were injected i.p. with the same dose of acetaminophen, and mouse survival was monitored for 4 days.

The subject of another data set is CBA/J mice. Briefly: Acetaminophen dose response in CBA/J mice. The following applies: 8 h fast. The data set is classed as in vivo, mouse. The protocol: (§1) Six wk old female CBA/J mice (Jackson Laboratory, Bar Harbor, Me.) were fasted, but with free access to water, for 8 h prior to intraperitoneal (I.P.) injection of acetaminophen (Sigma) at 200 or 300 mg/kg, dissolved in normal saline. After injection, the animals were allowed free access to food. Mice were euthanized and liver was taken from the mice at various time points after acetaminophen injection into the mice.
To determine the level of acetaminophen that was necessary to induce liver damage, a dose response was performed. In these studies, normal CBA/J mice were fasted for 8 h and subsequently given an intraperitoneal injection of acetaminophen dissolved in PBS or PBS alone for control. Mouse survival was followed for 4 days when the study was terminated. 20 mice/group were used in 2 separate studies.

In data set [1] the test system is CBA/J mice treated with acetaminophen. Briefly: Exogenous SCF at lethal acetaminophen dose. The data set is classed as in vivo, mouse. The protocol: as §1
Hepatic damage was measured using an AXIO-HOME microscope by 2 independent investigators. Sections of liver tissue (2 from each animal) were stained with hematoxylin and eosin and the area of hepatic damage was outlined and expressed as a % of total liver area examined.
In order to finally determine whether SCF has a role in protecting the animals from acetaminophen toxicity, 1 μg of recombinant murine SCF or saline was injected i.v. at the time of or within 30 min. of acetaminophen challenge. The survival of animals was recorded for 4 days and the study was terminated. % Survival data was collected from 2 separate studies with a total of 20 mice in each treatment group.

In the case of `CC(=O)Nc1ccc(O)cc1` [acetaminophen], the Lethality result is recorded as “approximately 10%” in the data set with CD1 and BALB/c mice; “no lethality” with CBA/J mice (200 mg/kg i.p.); approximately 100% in the data set with CBA/J mice (300 mg/kg i.p., by 48 h).

B1: SCF: recombinant murine stem cell factor (protein)
chain: KEICGNPVTDNVKDITKLVANLPNDYMITLNYVAGMDVLPSHCWLRDMVIQLSLSLTTLLDKFSNISEGLSNYSIIDKLGKIVDDLVLCMEENAPKNIKESPKRPETRSFTPEEFFSIFNRSIDAFKDFMVASDTSDCVLSSTLGPEKDSRVSVTKPFMLPPVA
In data set [1] (1 ug i.v. at or within 30 min of lethal acetaminophen dose, 4 days), B1 gave a Survival of 90%. Further, the Liver histology result in data set [1] (300 mg/kg acetaminophen, 1 ug SCF) is on record as “no necrotic areas”. Further, the “Hepatocyte proliferation in vitro” value in the data set on hepatocytes was “can directly induce hepatocyte proliferation in vitro”.
